According to US20100305124A1, “Acylated Aminopyridine and Aminopyridazine Insecticides” (BAYER CROPSCIENCE AG, priority 2009, published 2010):

Assays:
[1] = system: common spider mite (Tetranychus urticae); assay: Tetranychus test (TETRUR), sprayed French bean plants; type: in vivo; details: application rate of 500 ppm; spray on French bean plants
Protocol: Tetranychus Test (TETRUR) Solvent: 3 parts by weight of dimethylformamide Emulsifier: 1 part by weight of polyoxyethylenealkyl phenyl ether An appropriate preparation of active ingredient is prepared by mixing 1 part by weight of active ingredient with the stated amount of solvent and emulsifier and diluting the concentrate with water to the desired concentration. French bean (Phaseolus vulgaris) plants are infested with a mixed population of the common spider mite (Tetranychus urticae) and sprayed with the preparation of active ingredient at the desired concentration. After the desired time, the effect in % is determined: here, 100% means that all of the spider mites have been killed. Conversely, 0% means that no spider mites have been killed.

[2] = system: green peach aphid (Myzus persicae); assay: Myzus test (MYZUPE spray treatment), Chinese cabbage leaf discs; type: in vivo; details: foliar, spray on Chinese cabbage discs, read-out: effect in % (aphids killed); for pest or weed control at 500 g/ha: application rate of 500 g/ha; for pest or weed control at 500 ppm: application rate of 500 ppm
Protocol: Myzus Test (MYZUPE Spray Treatment)
Solvents: 78 parts by weight of acetone • • 1.5 parts by weight of dimethylformamide Emulsifier: 0.5 part by weight of alkylaryl polyglycol ether
An appropriate preparation of active ingredient is prepared by mixing 1 part by weight of active ingredient with the stated amounts of solvents and emulsifier and diluting the concentrate with emulsifier-containing water to the desired concentration.
Discs of Chinese cabbage (Brassica pekinensis) infested with all stages of the green peach aphid (Myzus persicae) are sprayed with a preparation of active ingredient at the desired concentration.
After the desired time, the effect in % is determined. Here, 100% means that all of the aphids have been killed; 0% means that no aphids have been killed.

Row | Structure (SMILES) | pest or weed control at 500 g/ha [2] [%] | other results
1 | CN(C(=O)c1ccc(Oc2ccc(C(C)(C)C)cc2)nc1)c1cccnc1 [I-127] |  | effect in % (spider mites killed) [1]: ≥ 80%
2 | Cc1ncccc1-n1ncc(C(=O)Nc2cccnc2)c1C [I-2] |  | pest or weed control at 20 g/ha ([2]; application rate of 20 g/ha): ≥ 80%
3 | CN(C(=O)c1ccc(OC(F)(F)F)cc1)c1cccnc1 [I-266] | ≥ 80 | 
4 | COc1ccc(C(=O)N(C)c2cccnc2)cc1NC(=O)C1CCCC1 [I-333] | ≥ 80 | 
5 | CCn1ncc(C(=O)Nc2cccnc2)c1C(F)(F)F [I-287] | ≥ 80 | 
6 | Cc1ccc(C(=O)N(C)c2cccnc2)cc1NC(=O)C1CCCC1 [I-312] | ≥ 80 | 
7 | CC(F)c1nn(C)cc1C(=O)N(C)c1ccnnc1 (stereo not drawn) [I-321] | ≥ 80 | 
8 | CC(=O)Nc1cc(C(=O)N(C)c2cccnc2)ccc1Cl [I-307] | ≥ 80 | 
9 | COc1ccc(C(=O)N(C)c2cccnc2)cc1NC(=O)C(C)(C)C [I-303] | ≥ 80 | 
10 | CN(C(=O)c1ccc2c(c1)OC(F)(F)O2)c1cccnc1 [I-261] | ≥ 80 | 
11 | CC(C)=CC(=O)Nc1cc(C(=O)N(C)c2cccnc2)ccc1C [I-318] | ≥ 80 | 
12 | COc1ccc(C(=O)Nc2cccnc2)cc1OC [I-263] | ≥ 80 | 
13 | COc1ccc(C(=O)N(C)c2cccnc2)cc1-n1cccn1 [I-280, 4-Methoxy-N-methyl-3-pyrazol-1-yl-N-pyridin-3-ylbenzamide] | ≥ 80 | 
14 | COCC(=O)Nc1cc(C(=O)N(C)c2cccnc2)ccc1OC [I-335] | ≥ 80 | 
15 | CCC(C)C(=O)Nc1cc(C(=O)N(C)c2cccnc2)ccc1OC (stereo not drawn) [I-332] | ≥ 80 | 
16 | O=C(Nc1cccnc1)c1cnn(CC(F)(F)F)c1-c1cnccn1 [I-257] | ≥ 80 | 
17 | CC(C)C(=O)Nc1cc(C(=O)N(C)c2cccnc2)ccc1Cl [I-299] | ≥ 80 | 
18 | C/C=C/C(=O)Nc1cc(C(=O)N(C)c2cccnc2)ccc1C [I-317] | ≥ 80 | 
19 | CCCC(=O)Nc1cc(C(=O)N(C)c2cccnc2)ccc1C [I-315] | ≥ 80 | 
20 | CC(C)C(=O)Nc1cccc(C(=O)N(C)c2cccnc2)c1 [I-284] |  | pest or weed control at 500 ppm [2]: ≥ 80%

Row | Structure (SMILES) | pest or weed control at 500 g/ha [2] [%] | other results
21 | CN(C(=O)c1cn(C)nc1C(F)(F)F)c1ccnnc1 [I-322] | ≥ 80 | 
22 | CN(C(=O)c1ccc(F)c(C(F)(F)F)c1)c1cccnc1 [I-259] | ≥ 80 | 
23 | Cc1ccc(C(=O)N(C)c2cccnc2)cc1NC(=O)C(C)C [I-300, 3-Isobutyrylamino-4,N-dimethyl-N-pyridin-3-ylbenzamide] | ≥ 80 | 
24 | O=C(Nc1cccnc1)c1ccc(OC(F)(F)F)cc1 [I-264] | ≥ 80 | 
25 | CC(=O)Nc1cc(C(=O)N(C)c2cccnc2)ccc1C [I-308] | ≥ 80 | 
26 | COc1ccc(C(=O)Nc2cccnc2)cc1NC(=O)C1CC1 [I-293] | ≥ 80 | 
27 | O=C(Nc1cccnc1)c1ccc(F)c(C(F)(F)F)c1 [I-258] | ≥ 80 | 
28 | COc1ccc(C(=O)N(C)c2cccnc2)cc1[N+](=O)[O-] [I-294] | ≥ 80 | 
29 | CC(C)c1nn(C)cc1C(=O)N(C)c1ccnnc1 [I-323] | ≥ 80 | 
30 | COc1ccc(C(=O)N(C)c2cccnc2)cc1OC [I-260] | ≥ 80 | 
31 | COc1ccc(C(=O)N(C)c2cccnc2)cc1NC(=O)OC(C)C [I-337] | ≥ 80 | 
32 | COC(C)c1c(C(=O)N(C)c2cccnc2)cnn1CC(F)(F)F (stereo not drawn) [I-275] | ≥ 80 | 
33 | Cc1ccc(C(=O)N(C)c2cccnc2)cc1NC(=O)C(C)(C)C [I-305] | ≥ 80 | 
34 | CN(C(=O)c1cnn(-c2ncccn2)c1C(F)(F)F)c1cccnc1 [I-268, 1-Pyrimidin-2-yl-5-trifluoromethyl-1H-pyrazole-4-carboxylic acid methylpyridin-3-ylamide] | ≥ 80 | 
35 | CN(C(=O)c1cnn(-c2ccccc2Cl)c1C(F)(F)F)c1cccnc1 [I-271] | ≥ 80 | 
36 | CN(C(=O)c1cnn(CC(F)(F)F)c1C(F)(F)F)c1cccnc1 [I-330] | ≥ 80 | 
37 | CC(C)Oc1ccc(C(=O)N(C)c2cccnc2)cc1-n1ccc(C(F)(F)F)n1 [I-279] | ≥ 80 | 
38 | CN(C(=O)c1ccc(Cl)c(NC(=O)C2CC2)c1)c1cccnc1 [I-302] | ≥ 80 | 
39 | Cc1ccc(C(=O)N(C)c2cccnc2)cc1NC(=O)OC(C)C [I-316] | ≥ 80 | 
40 | CCn1cc(C(=O)N(C)c2ccnnc2)c(C)n1 [I-327] | ≥ 80 | 

Row | Structure (SMILES) | pest or weed control at 500 g/ha [2] [%] | other results
41 | CC(=O)Nc1cccc(C(=O)N(C)c2cccnc2)c1 [I-283] | ≥ 80 | 
42 | Cn1cc(C(=O)Nc2ccnnc2)c(C(F)(F)F)n1 [I-281] | ≥ 80 | 
43 | Cc1ccc(C(=O)Nc2cccnc2)cc1NC(=O)C1CC1 [I-292] | ≥ 80 | 
44 | CN(C(=O)c1ccc(F)c(NC(=O)C2CC2)c1)c1cccnc1 [I-301] | ≥ 80 | 
45 | COC(C)c1c(C(=O)N(C)c2cccnc2)cnn1-c1ncccn1 (stereo not drawn) [I-276] | ≥ 80 | 
46 | CCC(=O)Nc1cc(C(=O)N(C)c2cccnc2)ccc1OC [I-331] | ≥ 80 | 
47 | Cc1ccc(C(=O)N(C)c2cccnc2)cc1NC(=O)NC(C)C [I-314] | ≥ 80 | 
48 | CC(C)C(=O)Nc1cccc(C(=O)Nc2cccnc2)c1 [I-286] | ≥ 80 | 
49 | CN(C(=O)c1csc(-c2ncccc2Cl)n1)c1cccnc1 [I-278] | ≥ 80 | 
50 | CN(C(=O)c1cccc(C(F)(F)F)c1)c1cccnc1 [I-262] | ≥ 80 | 
51 | CCc1nn(C)cc1C(=O)N(C)c1ccnnc1 [I-326] | ≥ 80 | 
52 | CC(C)n1ncc(C(=O)Nc2cccnc2)c1C(F)(F)F [I-285] | ≥ 80 | 
53 | CN(C(=O)c1cnn(CC(F)(F)F)c1C(F)F)c1cccnc1 [I-269] | ≥ 80 | 
54 | O=C(Nc1cccnc1)c1cnn(CC(F)(F)F)c1C(F)(F)F [I-282] | ≥ 80 | 
55 | COCc1c(C(=O)N(C)c2cccnc2)cnn1CC(F)(F)F [I-270] | ≥ 80 | 
56 | CC(C)C(=O)Nc1cc(C(=O)N(C)c2cccnc2)ccc1F [I-298] | ≥ 80 | 
57 | COc1ccc(C(=O)N(C)c2cccnc2)cc1NS(=O)(=O)C(C)C [I-334] | ≥ 80 | 
58 | CN(C(=O)c1ccc(S(C)(=O)=O)c(N)c1)c1cccnc1 [I-296] |  | pest or weed control at 500 ppm [2]: ≥ 80%
59 | CCC(C)C(=O)Nc1cc(C(=O)N(C)c2cccnc2)ccc1C (stereo not drawn) [I-311] | ≥ 80 | 
60 | Cc1ccc(C(=O)N(C)c2cccnc2)cc1[N+](=O)[O-] [I-295] | ≥ 80 | 
